# Laboratory results: patent US20110166223A1, “METHODS OF INHIBITING FGFR3 SIGNALING” (CEDARS-SINAI MEDICAL CENTER, priority 2008, published 2011)
# Key:
# [1] = tested on: FGF2/FGFR3-mediated extracellular matrix loss in RCS chondrocytes; experiment: [35S]sulfate labeling assay in RCS chondrocytes; format: cell-based, rat; details: FGF2 5 ng/ml, NF449 20 μM, 72 hours, FIG. 2b
# Method: (§1) For Alcian blue staining, growing RCS cultures were treated with FGF2 (5 ng/ml) alone or in the presence of NF449 (20 μM) for 72 hours, fixed with 4% paraformaldehyde and stained for 30 minutes with Alcian blue. For quantification of the FGF2/FGFR3-mediated extracellular matrix loss, RCS chondrocytes were treated with FGF2 (5 ng/ml) and NF449 (20 μM) for 72 hours in the presence of 10 μCi/ml of [^35S]sulfate (Perkin Elmer, Boston, Mass.). Following the cultivation period, cells were harvested and the incorporated radioactivity was determined by liquid scintillation.
# (§2) Apart from the growth arrest, aberrant FGFR3 signaling in chondrocytes leads to the loss of their extracellular matrix, rich in sulfated proteoglycans, due to inhibition of matrix synthesis as well as degradation of the existing matrix. The inventors therefore evaluated whether NF449 rescues the extracellular matrix loss induced by FGFR3 activation. […] Similar to previous findings, this matrix was lost after the 72-hours of FGF2 treatment. […] To further confirm this observation, cells were incubated with [^35S]sulfate for 72 hours to label the extracellular matrix and determined the effect of FGF2 and NF449 on the cell-bound radioactivity.
# [2] = tested on: FGF2-mediated extracellular matrix loss in RCS chondrocytes; experiment: Alcian blue staining of extracellular matrix in RCS chondrocytes; format: cell-based, rat; details: FGF2 5 ng/ml, NF449 20 μM, 72 hours, FIG. 2a
# Method: as §1, §2
# [3] = target: GSA subunit (Homo sapiens, UniProt P63092); details: Hohenegger, et al., 1998; cited from earlier work
# [4] = tested on: CCL3 and CCL4 expression in OPM2 cells; experiment: Real-time RT-PCR of FGF2/FGFR3-induced CCL3 and CCL4 expression; format: cell-based; details: NF449 one hour before FGF2, FIG. 3b
# Method: FIG. 3, in accordance with an embodiment herein, depicts 4,4′,4″,4′″-[carbonyl-bis[imino-5,1,3-benzenetriyl bis-{carbonylimino}]]tetrakis-{benzene-1,3-disulfonic acid} inhibits FGF2/FGFR3 signaling in MM cell lines OPM2 and KMS11. (a) KMS11 and OPM2 cells were serum-starved for 12 hours, treated with 4,4′,4″,4′″-[carbonyl-bis[imino-5,1,3-benzenetriyl bis-{carbonylimino}]]tetrakis-{benzene-1,3-disulfonic acid} for one hour before the treatment with FGF2 and the levels of ERK MAP kinase phosphorylation were determined by western blotting with the P-ERK1/2(Thr^202/Tyr^204) antibody. As a loading control, the membranes were reprobed with antibody recognizing ERK regardless of its phosphorylation. Note the FGF2-mediated ERK phosphorylation is inhibited by 4,4′,4″,4′″-[carbonyl-bis[imino-5,1,3-benzenetriyl bis-{carbonylimino}]]tetrakis-{benzene-1,3-disulfonic acid} in both KMS11 and OPM2 cells. (b) The OPM2 cells were serum starved for 12 hours, pre-treated with 4,4′,4″,4′″-[carbonyl-bis[imino-5,1,3-benzenetriyl bis-{carbonylimino}]]tetrakis-{benzene-1,3-disulfonic acid} for one hour before FGF2 treatment, and analyzed for CCL3 and CCL4 expression by real-time RT-PCR as described herein. The results are expressed as the fold difference relative to control (2^ddCt). Note the FGF2-mediated induction of CCL3 and CCL4 that is inhibited by 4,4′,4″,4′″-[carbonyl-bis[imino-5,1,3-benzenetriyl bis-{carbonylimino}]]tetrakis-{benzene-1,3-disulfonic acid}. The data represent two independent samples, each run as a technical duplicate, with the indicated range. The results are representative for three experiments.
# Total RNA was isolated using the RNeasy Mini Kit (Qiagene, Valencia, Calif.) and poly-dT-primed cDNA was synthesized from 3 μg of RNA using Omniscript RT kit (Qiagene). Real-time RT-PCRs were carried out as described in detail elsewhere, using Dynamo SYBR Green qPCR chemistry (Finnzymes, Espoo, Finland). The PCR primers were the following (5′ to 3′; product size): CCL3 (SEQ. ID. NO.: 1 and SEQ. ID. NO.: 2), 192 bp; CCL4 (SEQ. ID, NO.: 3 and SEQ. ID. NO.: 4), 214 bp; ACTIN (SEQ. ID. NO.: 5 and SEQ. ID. NO.: 6), 245 bp. The results are expressed as fold difference relative to control (2^ddCt).
# Since MM represents another area of pathological FGFR3 signaling in viva, the inventors evaluated whether NF449 inhibits FGFR3 signaling in KMS11 and OPM2 MM cell lines. OPM2 and KMS11 cells overexpress FGFR3 carrying the strongly activating mutations Y373C or K650E and thus serve as an in vitro model for oncogenic FGFR3 signaling in MM [14]. […] As the CCL3 ([…]) and CCL4 (MIP-1β) chemokines were previously identified as transcriptional targets of FGFR3 signaling in MM [16], the inventors determined the effect of NF449 on the FGF2/FGFR3-induced expression of CCL3 and CCL4.
# [5] = listed as 4,4′,4″,4′″-[carbonyl-bis[imino-5,1,3-benzenetriyl bis-{carbonylimino}]]tetrakis
# GSA subunit, sequence (P63092 whole entry): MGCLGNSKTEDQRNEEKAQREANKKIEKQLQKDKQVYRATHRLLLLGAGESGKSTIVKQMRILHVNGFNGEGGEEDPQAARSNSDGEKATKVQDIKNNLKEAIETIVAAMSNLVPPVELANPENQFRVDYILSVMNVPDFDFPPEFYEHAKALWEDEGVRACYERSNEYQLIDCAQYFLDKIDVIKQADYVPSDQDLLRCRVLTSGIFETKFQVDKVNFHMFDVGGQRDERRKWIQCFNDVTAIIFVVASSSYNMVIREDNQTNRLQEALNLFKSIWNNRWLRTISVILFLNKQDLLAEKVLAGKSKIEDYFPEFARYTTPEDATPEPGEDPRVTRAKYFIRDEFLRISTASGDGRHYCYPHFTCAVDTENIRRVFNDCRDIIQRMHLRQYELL
compound,measurement,setting,value
"O=C(Nc1cc(C(=O)Nc2ccc(S(=O)(=O)O)cc2S(=O)(=O)O)cc(C(=O)Nc2ccc(S(=O)(=O)O)cc2S(=O)(=O)O)c1)Nc1cc(C(=O)Nc2ccc(S(=O)(=O)O)cc2S(=O)(=O)O)cc(C(=O)Nc2ccc(S(=O)(=O)O)cc2S(=O)(=O)O)c1 [NF449, 4,4′,4″,4′″-[carbonyl-bis[imino-5,1,3-benzenetriylbis-{carbonylimino}]]tetrakis-{benzene-1,3-disulfonic acid}]",FGF2-mediated inhibition of [35S]sulfate incorporation (loss of sulfated proteoglycans),[1],completely rescued
same,FGF2-mediated inhibition of [35S]sulfate incorporation (loss of sulfated proteoglycans),[1]; [5],reversed
same,FGF2-induced cellular shape change,[2],rescued
same,"FGF2-mediated extracellular matrix loss, Alcian blue staining",[2],equaled that of the control cells
same,"FGF2-mediated extracellular matrix loss, Alcian blue staining",[2]; [5],reversed
same,concentration needed to inhibit GSA,[3],0.14 µM
same,FGF2-mediated upregulation of CCL3 transcripts,[4],significantly blocked
same,FGF2-mediated upregulation of CCL4 transcripts,[4],significantly blocked
same,FGF2-mediated upregulation of CCL3 transcripts,[4]; [5],inhibited
same,FGF2-mediated upregulation of CCL4 transcripts,[4]; [5],inhibited
